In patent US20130190407A1, “CALCIUM RECEPTOR-ACTIVE MOLECULES” (NPS Pharmaceuticals, Inc., priority 1991, published 2013):

How the values were obtained:
[1] = biological target: T1, parathyroid cell calcium receptor (Bos taurus, UniProt P35384); test: Cl- current in Xenopus oocytes injected with bovine parathyroid cell poly(A)+-mRNA; format: cell-based; set-up: Whole pieces of gland were used to prepare mRNA that directs the expression of the calcium receptor in Xenopus oocytes; expressed in transfected cells; host or cells: Xenopus laevis oocytes injected with total poly(A)+ mRNA from bovine parathyroid glands; details: 30 μM
T1 sequence (P35384 20-1085): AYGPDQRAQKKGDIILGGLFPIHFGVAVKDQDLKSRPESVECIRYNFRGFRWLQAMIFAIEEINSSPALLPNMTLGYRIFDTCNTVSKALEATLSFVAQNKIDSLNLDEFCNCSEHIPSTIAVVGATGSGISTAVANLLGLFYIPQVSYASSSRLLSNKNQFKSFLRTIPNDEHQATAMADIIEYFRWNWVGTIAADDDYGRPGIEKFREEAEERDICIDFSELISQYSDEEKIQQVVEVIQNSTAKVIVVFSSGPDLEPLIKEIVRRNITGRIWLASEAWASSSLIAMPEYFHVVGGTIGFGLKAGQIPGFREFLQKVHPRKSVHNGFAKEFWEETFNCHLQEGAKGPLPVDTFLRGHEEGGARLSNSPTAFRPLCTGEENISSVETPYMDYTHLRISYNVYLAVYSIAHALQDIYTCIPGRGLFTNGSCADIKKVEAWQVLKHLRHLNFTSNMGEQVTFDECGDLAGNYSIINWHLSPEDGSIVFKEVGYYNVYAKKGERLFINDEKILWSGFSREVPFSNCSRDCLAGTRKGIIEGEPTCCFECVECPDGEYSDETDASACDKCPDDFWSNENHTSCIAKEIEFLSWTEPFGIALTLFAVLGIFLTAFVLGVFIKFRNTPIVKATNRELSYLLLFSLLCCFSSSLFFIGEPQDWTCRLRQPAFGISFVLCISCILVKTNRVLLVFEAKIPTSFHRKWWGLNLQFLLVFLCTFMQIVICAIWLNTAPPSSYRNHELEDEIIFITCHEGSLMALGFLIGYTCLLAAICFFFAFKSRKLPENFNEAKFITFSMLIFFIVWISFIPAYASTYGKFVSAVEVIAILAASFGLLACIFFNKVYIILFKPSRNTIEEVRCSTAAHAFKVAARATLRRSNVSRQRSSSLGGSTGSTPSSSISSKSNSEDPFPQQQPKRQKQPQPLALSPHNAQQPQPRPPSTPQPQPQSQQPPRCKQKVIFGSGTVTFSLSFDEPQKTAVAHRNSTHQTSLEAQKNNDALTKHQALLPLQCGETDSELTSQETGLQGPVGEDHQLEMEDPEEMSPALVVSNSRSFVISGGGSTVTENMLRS
Method: Following incubation, an oocyte was placed into a 100-μl plastic chamber and superfused with MBS at a flow rate of 0.5 ml/min using a peristaltic pump. Test molecules or inorganic polycations were added by rapidly moving the tubing into different buffers. Recording and current-passing electrodes were constructed from thin-wall capillary tubing pulled to a resistance of 1-3 Mohms and filled with 3 M KCl. […] Currents were recorded directly onto a strip chart recorder.
Dissociated bovine parathyroid cells were used to further explore the mechanism of action of NPS R-467 at the receptor level. […] It does, however, elicit responses in parathyroid cells and in oocytes when a small amount of extracellular Ca^2+ is present.

thyroidectomized animals = test: Hypocalcemic response in thyroidectomized rats; format: in vivo, rat; details: 3 to 100 mg/kg p.o.
Text: In subsequent studies, rats received a thyroidectomy (parathyroid glands intact). This surgical procedure effectively removed the C-cells secreting calcitonin and therefore enabled the relative contributions of PTH and calcitonin to the hypocalcemic effect of this compound to be determined. […] The only difference was that the rate of onset of the hypocalcemic response was somewhat delayed in thyroidectomized animals. […] Stimulatory effects of this compound on calcitonin secretion increases the rate of onset, but not the extent, of hypocalcemia.

[2] = tested on: healthy, post-menopausal person; test: Placebo-controlled single-dose, dose-escalation study in a human; format: in vivo
Text: A range of single oral doses was used to assess safety, tolerance, and changes in primary hyperparathyroidism markers (e.g., plasma concentrations of parathyroid hormone and ionized serum calcium) and of serum calcitonin.

SMILES	Cl- current [1]	hypocalcemic response (thyroidectomized animals)	Serum PTH ([2]; 20 mg single oral dose, 1 h) [pg/mL]	Serum PTH ([2]; 240 mg single oral dose, 0.5 h) [pg/mL]	serum ionized calcium concentration ([2]; at higher doses)	serum calcitonin ([2]; at the doses studied)	plasma PTH concentration ([2]; single oral doses)
COc1cccc([C@@H](C)NCCCc2ccccc2)c1 (single isomer, unassigned) [NPS R-467]	rapid increase in Cl^− current						
COc1cccc([C@@H](C)NCCCc2ccccc2Cl)c1 [NPS R-568, (R)-(+)-N-[3-(2-chlorophenyl)propyl]-α-methyl-3-methoxybenzylamine]		hypocalcemic response equal in magnitude to that produced in sham-operated animals	18	18	decrease in serum ionized calcium concentration	no apparent change in serum calcitonin	transient dose-dependent decrease in plasma PTH concentration
